Experimental data as given in EP4663242A1, “TARGETING THE ENERGY COUPLING FACTOR (ECF) TRANSPORTERS AS NOVEL ANTIMICROBIAL TARGET” (Helmholtz-Zentrum für Infektionsforschung GmbH, priority 2024, dated 2025).
Values after ≈ are worked out from the molar mass of the structure shown. Values joined by “and” are separate entries in the source; they are usually repeats but may differ in a detail not shown here. Equal entries are not always repeated. Where two headings read alike, the source gives them in different places.

Legend:
E. faecium DSM-20478 = assay: MIC screening against Gram-positive pathogens; type: cell-based; conditions: Enterococcus faecium
Method: (§1) 4.3.3. Screening against clinically relevant Gram-positive pathogens.
(§2) All microorganisms were obtained from the German Collection of Microorganisms and Cell Cultures (DSMZ) and were handled according to standard procedures. Bacteria were inoculated into tryptic soy broth (TSB) to obtain a final inoculum of […] colony-forming units (CFU)/mL. The tested compounds were prepared as DMSO stocks (20 mM). Serial dilutions of derivatives in the growth medium (0.06 to 128 µM) were prepared in sterile 96-well plates, and the bacterial suspensions were added. Growth inhibition was assessed after static incubation at 37 °C for 24 h. S. pneumoniae was grown at 5% CO2. MIC values are defined as the lowest compound concentration where no visible growth is observed.

[1] = test system: Enterococcus faecalis DSM-20477; assay: MIC screening against Gram-positive pathogens; type: cell-based
Method: as §1, §2

E. faecium DSM-17050 = assay: MIC screening against Gram-positive pathogens; type: cell-based; conditions: Enterococcus faecium
Method: as §1, §2

S. pneumoniae DSM-11865 = assay: MIC screening against Gram-positive pathogens; type: cell-based; conditions: Streptococcus pneumoniae
Method: as §1, §2

ECF-FoIT2 = assay: Uptake assay into proteoliposome (radiolabelled folate uptake); type: biochemical, L. delbrueckii; conditions: folate uptake into proteoliposomes, n = 2, mean ± SD
Method: In summary, both 1 and 22 are capable of inhibiting the ECF-FoIT2 in a proteoliposome-based uptake assay which further complements the results obtained from the whole-cell uptake assay. Table 4. Relative inhibition of ECF-FoIT2 in proteoliposome uptake assay
4.3.2. Uptake assay into proteoliposome
This assay was performed based on the protocol reported by Swier et al. with minor modifications.^18

[2] = test system: Streptococcus pneumoniae DSM-20566; assay: MIC screening against Gram-positive pathogens; type: cell-based; conditions: 37 °C, 24 h
Method: as §1, §2

MIC (E. faecium DSM-20478; DSM20478, E. faecium DSM-20478, TSB, 37 °C, 24 h, read-out: MIC) [µM]	MIC ([2]; DSM20566, TSB, 5% CO2, read-out: MIC) [µM]	MIC ([2]; TSB, 5% CO2) [µM]	MIC ([1]; DSM20477, Enterococcus faecalis DSM-20477, TSB, 37 °C, 24 h, read-out: MIC) [µM]	MIC (E. faecium DSM-17050; DSM17050, E. faecium DSM-17050, vancomycin-resistant strain, TSB, 37 °C, 24 h, read-out: MIC) [µM]	MIC (S. pneumoniae DSM-11865; DSM11865, S. pneumoniae DSM-11865, penicillin-resistant strain, TSB, 37 °C, 24 h, 5% CO2, read-out: MIC) [µM]	SMILES	MIC (E. faecium DSM-20478; DSM20478, 24 h) [µM]	MIC ([1]; Enterococcus faecalis, DSM20477, 24 h) [µM]	MIC (E. faecium DSM-17050; DSM17050, 24 h) [µM]	MIC (S. pneumoniae DSM-11865; DSM11865, 24 h) [µM]	Relative inhibition (%) at 150 µM (ECF-FoIT2)
–	–	–	–	–	–	O=C(O)CCc1nc(-c2ccc(Cl)cc2)c(-c2ccccc2)o1 [Compound 1, 3-(4-(4-Chlorophenyl)-5-phenyloxazol-2-yl)propanoic acid]	> 128	> 128	> 128	> 128	44% and 44 ± 2%
4 (≈ 1.91 µg/mL)	0.5 to 1 (≈ 0.239 to 0.478 µg/mL)	0.5 to 1	4 (≈ 1.91 µg/mL)	2 (≈ 0.957 µg/mL)	0.5 to 1 (≈ 0.239 to 0.478 µg/mL)	O=C(O)c1cccc(-c2nc(-c3ccc(Cl)c(Cl)c3)c(-c3cccc(C(F)(F)F)c3)o2)c1 [Compound 22, 3-(4-(3,4-Dichlorophenyl)-5-(3-(trifluoromethyl)phenyl)oxazol-2-yl)benzoic acid]	–	–	–	–	95% and 95 ± 1%
